Source: publication PMC3549755, “A comparison of the ability of rilpivirine (TMC278) and selected analogues to inhibit clinically relevant HIV-1 reverse transcriptase mutants” (Retrovirology, 2012)
Read-outs that look alike come from different tables or passages of the source.

What was measured:
[1] = system: viral vector with Y181C mutant HIV-1 RT; assay: single-round infectivity assay, luciferase reporter, Y181C RT vector; format: cell-based; settings: Human immunodeficiency virus 1; HOS cells, reduction of luciferase reporter activity, SD in parentheses
Description: (§1) We examined the effects of rilpivirine and the analogues on HIV-1 replication using a previously described assay and report the concentrations at which luciferase reporter activity was reduced by half relative to uninhibited controls (EC50) with standard deviations in parentheses. In the assay, viral vectors that replicate using WT HIV reverse transcriptase or one of several mutants (L100I, K103N, V106A, E138K, Y181C, Y188L, H221Y and the double mutant K103N/Y181C) were used to infect cells in a single round assay. These mutants were chosen either because they are known NNRTI resistance mutations (L100I, K103N, Y181C, and the K103N/Y181C double mutant), they were selected in patients in rilpivirine clinical trials (E138K and H221Y), or they are positioned to make significant Van der Waals contacts with rilpivirine (V106A and Y188L). All compounds were initially screened against a panel that included at least one RT mutant from all three groups (WT, K103N, E138K, Y181C and Y188L). The cytotoxicity of the compounds was also determined to establish the therapeutic index of each of the compounds.
(§2) Procedures for virion production and cell-based assay have been reported. Briefly, all cell cultures were maintained in Dulbecco’s modified Eagle’s medium (Invitrogen, Carlsbad, CA) with 5% (v/v) fetal bovine serum, 5% newborn calf serum, penicillin (50 units/mL) and streptomycin (50 μg/mL) (Quality Biological, Gaithersburg, MD). […]. Transfected cells were incubated at 37°C for 8 hrs, washed twice with PBS, fresh media was added and the cells were returned to the incubator for 48 hrs. The pNLNgoMIVR^+ΔEnv.LUC plasmid encodes the HIV-1 genome with an Env deletion and either WT HIV-1 RT, or one of the following mutants: L100I, K103N, V106A, E138K, Y181C, Y188L, H221Y, or K103N/Y181C. Supernatants from each plate were clarified by low-speed centrifugation (3,000xg for 20 min), then treated with 200 U DNase I (Roche Applied Science, Mannheim, Germany) at room temperature for 3 hours. Viral supernatants were stored at −20°C until used.
(§3) One day prior to infection, 100 μL of human osteosarcoma (HOS) cells were added to each well of a 96-well plate at a density of 4x10^4 cells/mL. Plates were incubated overnight at 37°C. On the day of infection, 10X drug stocks were prepared by serial dilution in media from an initial 10 mM stock solution in DMSO. Cells in the 96-well plate were pre-treated by the addition of 22 μL of the appropriate drug stock and returned to the incubator for 3 hours. Thawed virus stocks were diluted 1:2 in media, then 100 μL of virus was added to the pre-treated cells, bringing the final drug concentrations to 0.1 nM to 100 nM, with DMSO-treated cells (no drug) serving as a reference. In addition, 12 wells of cells treated with media and no virus served as negative controls. Plates were returned to the incubator for an additional 42 hours, at which time the luciferase activity was determined using Steady-Lite Plus kits (PerkinElmer, Waltham, MA). Background luciferase activity, as measured for the negative controls, was subtracted from the activities measured for each infected well. Drug-free, DMSO-treated wells were normalized to 100% infectivity. Infectivity at each drug concentration was determined as a percentage of these drug-free infections. Drug concentration versus percent infectivity was plotted for each RT-inhibitor combination, and the data were fit to a four-parameter sigmoidal curve using KaleidaGraph 4.0 (Synergy Software, Reading, PA). The inflection point of each curve is reported as the IC50. All values are the mean of triplicate infections.

[2] = system: viral vectors that replicate using WT HIV reverse transcriptase; assay: single-round infectivity assay, luciferase reporter, vector with WT RT; format: cell-based, HIV-1; settings: SD in parentheses
Description: as §1, §2, §3

HOS cells = assay: cytotoxicity assay (ATP-Lite cell viability); format: cell-based, human; settings: ratio of CC50/EC50 (WT)
Method: (§4) One day prior to treatment, HOS cells were prepared in 96-well plates as described for the infectivity assays, except that 12 wells per plate were treated with cell-free media to serve as negative controls. The following day, serial dilutions of drug stocks were prepared in media from 10 mM stocks in DMSO. Each well received 11 μL of the appropriate drug concentration or DMSO-treated, drug-free media. Final drug concentrations ranged from 0.5 μM to 300 μM. The drug-free wells served as references. Plates were then incubated at 37°C for 48 hours. Cell viability was determined using luciferase reporter ATP-Lite kits (PerkinElmer). As described for the infectivity assays, drug-free reference wells were normalized to 100%, and viabilities at different drug concentrations were determined as a percentage of these references. Data were plotted and analyzed in the same manner as the IC50 data, with the inflection points of the curves reported as CC50.

[3] = cytotoxicity assay (ATP-Lite cell viability); format: cell-based, human; settings: human, HOS cells, 48 hours, SD in parentheses
Method: as §4

[4] = system: viral vector with Y188L mutant HIV-1 RT; assay: single-round infectivity assay, luciferase reporter, Y188L RT vector; format: cell-based; settings: for EC50: Human immunodeficiency virus 1, HOS cells, reduction of luciferase reporter activity, SD in parentheses
Description: as §1, §2, §3

[5] = system: viral vector with E138K mutant HIV-1 RT; assay: single-round infectivity assay, luciferase reporter, E138K RT vector; format: cell-based; settings: for EC50: Human immunodeficiency virus 1, HOS cells, reduction of luciferase reporter activity, SD in parentheses
Description: as §1, §2, §3

[6] = system: viral vector with K103N mutant HIV-1 RT; assay: single-round infectivity assay, luciferase reporter, K103N RT vector; format: cell-based; settings: Human immunodeficiency virus 1; HOS cells, reduction of luciferase reporter activity, SD in parentheses
Description: as §1, §2, §3

[7] = system: viral vector with K103N/Y181C double mutant HIV-1 RT; assay: single-round infectivity assay, luciferase reporter, K103N/Y181C RT vector; format: cell-based; settings: Human immunodeficiency virus 1; broader panel, SD in parentheses
Description: as §1, §2, §3

[8] = system: viral vector with V106A mutant HIV-1 RT; assay: single-round infectivity assay, luciferase reporter, V106A RT vector; format: cell-based; settings: Human immunodeficiency virus 1; broader panel, SD in parentheses
Description: as §1, §2, §3

[9] = system: viral vector with L100I mutant HIV-1 RT; assay: single-round infectivity assay, luciferase reporter, L100I RT vector; format: cell-based; settings: Human immunodeficiency virus 1; broader panel, SD in parentheses
Description: as §1, §2, §3

[10] = system: viral vector with H221Y mutant HIV-1 RT; assay: single-round infectivity assay, luciferase reporter, H221Y RT vector; format: cell-based; settings: Human immunodeficiency virus 1; broader panel, SD in parentheses
Description: as §1, §2, §3

[11] = Human immunodeficiency virus 1, HOS, HOS cells, reduction of luciferase reporter activity, read-out: EC50 WT
[12] = Human immunodeficiency virus 1, broader panel table, read-out: EC50 WT (Table S1)

| Compound | EC50 [1] | EC50 [2, 11] | Therapeutic Index (T.I.) (HOS cells) | CC50 at 48 h [3] | EC50 [4] | EC50 [5] | EC50 [6] | EC50 [7] | EC50 [2, 12] | EC50 [8] | EC50 [9] | EC50 [10] | loss of potency against Y188L ([4]; compared with rilpivirine (1)) | loss of potency against E138K ([5]; compared with rilpivirine (1)) | EC50 ([2]; HOS cells, reduction of luciferase reporter activity, read-out: EC50 WT) |
| --- | --- | --- | --- | --- | --- | --- | --- | --- | --- | --- | --- | --- | --- | --- | --- |
| COc1ccc(Cn2cnc3c(Nc4ccc(C#N)cc4)nc(Nc4c(C)cc(/C=C/C#N)cc4C)nc32)cc1 [Analogue 12] | 6.5 nM | 2.7 nM | 3.1x10^4 | 83000 nM | 12 nM | 15 nM | 1.9 nM | – | – | – | – | – | – | – | – |
| Cc1cc(/C=C/C#N)cc(C)c1Nc1nc(Nc2ccc3c(c2)OCO3)c2nc[nH]c2n1 [Analogue 24] | 3 nM | 0.1 nM | 1.9x10^5 | 19000 nM | 23 nM | 1.6 nM | 0.6 nM | – | – | – | – | – | – | – | – |
| Cc1cc(/C=C/C#N)cc(C)c1Nc1ncc([N+](=O)[O-])c(Nc2ccc(C#N)cc2)n1 [Analogue 8] | 5.3 nM | – | 1.0x10^5 | – | 13 nM | 4.9 nM | 1 nM | 86 nM | 0.9 nM | 0.3 nM | 0.2 nM | 2.6 nM | – | – | – |
| Cc1cc(/C=C/C#N)cc(C)c1Nc1nc(Nc2ccc(C(F)(F)F)cc2)c2nc[nH]c2n1 [Analogue 15] | 3.3 nM | 1.5 nM | 1.1x10^4 | 17000 nM | 17 nM | 4.7 nM | 0.9 nM | – | – | – | – | – | – | – | – |
| Cc1nc2cc(Nc3nc(Nc4c(C)cc(/C=C/C#N)cc4C)nc4[nH]cnc34)ccc2s1 [Analogue 22] | 6.1 nM | 0.6 nM | 9.5x10^4 | 57000 nM | > 100 nM | 8.3 nM | 2.2 nM | – | – | – | – | – | – | – | – |
| Cc1cc(/C=C/C#N)cc(C)c1Nc1nc(Nc2ccc3c(c2)CCC3)c2nc[nH]c2n1 [Analogue 23] | 4.1 nM | 0.4 nM | 7.5x10^4 | 30000 nM | > 100 nM | 7.9 nM | 1.7 nM | – | – | – | – | – | – | – | – |
| Cc1cc(/C=C/C#N)cc(C)c1Nc1nc(Nc2ccc(C#N)cc2)nc2[nH]cnc12 [Analogue 11] | 0.5 nM | – | 1.2x10^6 | – | 13 ± 0.5 nM | 2.9 nM | 0.1 nM | 1.2 nM | 0.1 nM | 0.4 nM | < 0.1 nM | 0.4 nM | nearly six-fold | four- to fourteen-fold | – |
| COc1ccc(Nc2nc(Nc3c(C)cc(/C=C/C#N)cc3C)nc3[nH]cnc23)cc1 [Analogue 16] | 2.3 nM | 0.2 nM | 6.0x10^4 | 12000 nM | 29 nM | 1.1 nM | 0.2 nM | – | – | – | – | – | – | – | 0.4 nM |
| Cc1cc(/C=C/C#N)cc(C)c1Nc1nc(Nc2ccc3nn[nH]c3c2)c2nc[nH]c2n1 [Analogue 25] | > 100 nM | 19 nM | 5.3x10^3 | 100000 nM | > 100 nM | > 100 nM | > 100 nM | – | – | – | – | – | – | – | – |
| Cc1cc(/C=C/C#N)cc(C)c1Nc1nc(Nc2ccccn2)c2nc[nH]c2n1 [Analogue 19] | > 100 nM | > 100 nM | < 3.6x10^2 | 36000 nM | > 100 nM | > 100 nM | > 100 nM | – | – | – | – | – | – | – | – |
| Cc1cc(/C=C/C#N)cc(C)c1Nc1nc(Nc2ccc(F)cc2)c2nc[nH]c2n1 [Analogue 17] | 2 nM | 1.7 nM | 7.1x10^3 | 12000 nM | 15 nM | 3.1 nM | 1.3 nM | – | – | – | – | – | – | – | – |
| CC(=O)c1ccc(Nc2nc(Nc3c(C)cc(/C=C/C#N)cc3C)nc3[nH]cnc23)cc1 [Analogue 14] | 5.9 nM | 0.3 nM | 2.7x10^4 | 8000 nM | 64 nM | 1.5 nM | 0.3 nM | – | – | – | – | – | – | – | – |
| COc1ccc(Cn2cnc3c(Nc4c(C)cc(/C=C/C#N)cc4C)nc(Nc4ccc(C#N)cc4)nc32)cc1 [Analogue 10] | 9.5 nM | 1.1 nM | 1.4x10^5 | 154000 nM | > 100 nM | 14 nM | 1 nM | – | – | – | – | – | – | – | – |
| Cc1cc(/C=C/C#N)cc(C)c1Nc1nc(Nc2cc(F)cc(F)c2)c2nc[nH]c2n1 [Analogue 18] | 56 nM | 9.3 nM | 1.4x10^3 | 13000 nM | > 100 nM | 28 nM | 4.9 nM | – | – | – | – | – | – | – | – |
